Results on one compound are retold here after patent US6376673B1, “Piperidine derivatives as neurotransmitter re-uptake inhibitors” (Neurosearch A/S, priority 1997, dated 2002).

The test deals with T1, dopamine transporter (Rattus norvegicus, UniProt P23977).
T1 construct: Corpus striatum from male Wistar rats (150-200 g) is homogenized; from tissue; host or cells: rat corpus striatum membrane pellet
The test is described as follows: In vitro inhibition of 3H-WIN 35428 binding. The conditions noted are these: corpus striatum membranes of male Wistar rats; 1 nM 3H-WIN 35428, 60 min at 2° C.; read-out: In Vitro IC50 (inhibition of specific binding of 3H-WIN 35428). An excerpt:
The compounds of the present invention have been tested for their ability to bind to the dopamine transporter in the following tests for in vitro inhibition of ^3H-WIN 35428.
In vitro Inhibition of ^3H-WIN 35428 Binding
Dopamine transporters/uptake sites on nerve terminals presumably function to terminate neuronal signaling by removing dopamine from the synaptic cleft. The activity or presence of the dopamine transporter integral protein can be measured in vitro with synaptosomal uptake of ^3H-dopamine or membrane binding assays with ^3H-ligands known to bind to the transporter.
Numerous ligands of several structural types have been reported to bind at the dopamine uptake site, but it remains questionable whether their binding sites are identical to that of cocaine. A structural analog og cocaine, ^3H-WIN 35428, binds selectively and with high affinity to the dopamine transporter complex.
Tissue preparation: Preparations are performed at 0-4° C. unless otherwise indicated. […]
Assay: Aliquots of 0.5 ml tissue are added to 25 ml of test solution and 25 ml of ^3H-WIN 35428 (1 nM, final concentration), mixed and incubated for 60 min at 2° C. Non-specific binding is determined using cocaine (30 mM, final concentration). […] The amount of radioactivity on the filters is determined by conventional liquid scintillation counting. […]

As a reminder, the IC50 is the concentration that inhibits the measured activity by half.

T1 sequence (P23977 whole entry): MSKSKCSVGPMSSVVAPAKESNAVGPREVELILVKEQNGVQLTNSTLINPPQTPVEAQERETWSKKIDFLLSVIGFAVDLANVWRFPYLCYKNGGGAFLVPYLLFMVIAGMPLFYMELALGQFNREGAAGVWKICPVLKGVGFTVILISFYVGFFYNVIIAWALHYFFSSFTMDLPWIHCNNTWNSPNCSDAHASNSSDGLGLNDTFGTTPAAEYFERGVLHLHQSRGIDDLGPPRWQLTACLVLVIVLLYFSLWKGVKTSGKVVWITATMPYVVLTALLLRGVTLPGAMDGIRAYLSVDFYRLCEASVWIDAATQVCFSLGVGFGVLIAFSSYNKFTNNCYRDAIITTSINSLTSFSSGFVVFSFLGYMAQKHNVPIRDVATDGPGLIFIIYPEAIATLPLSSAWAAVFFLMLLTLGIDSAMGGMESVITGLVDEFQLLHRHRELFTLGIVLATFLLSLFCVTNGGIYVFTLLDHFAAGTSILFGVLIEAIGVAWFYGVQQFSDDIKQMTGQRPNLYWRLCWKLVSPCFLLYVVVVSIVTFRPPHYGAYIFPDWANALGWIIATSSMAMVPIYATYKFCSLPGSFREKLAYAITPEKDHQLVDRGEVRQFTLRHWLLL

With `CON=CC1CN(C)CCC1c1ccc(Cl)c(Cl)c1` (stereo not shown) [1-Metyl-3-methoxyiminomethyl-4-(3,4-dichlorophenyl)piperidine], the IC50 was found to be 16 nM.
